Laboratory results from PubChem BioAssay AID977607 (Broad Institute, 2014).
“And” between values parts separate entries of the source, which are not always exact repeats. Equal values may be shown once. The source made the active and inactive calls.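 The calls were made as follows: active = curve reaches 40% activation over neutral controls at an AC40 no higher than the top valid tested concentration; inconclusive = no clear call, values can overlap the other calls; inactive = signal moving opposite to the expected increase, and the rest.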

System: INS-1E GLuc insulin secretion reporter, luminescence, 2-3 h
Test: activators of glucose-dependent insulin secretion, dose response, cell-based, INS-1E, Gaussia luciferase, luminescence, cherry-pick, set 2 (AID 977607)

SMILES | AC40
NC(N)=N/N=C/c1ccc(N(c2ccccc2)c2ccccc2)cc1 | 5.68 µM
CC(C)CC(NC(=O)c1ccc(Cl)cc1)C(=O)OCC(=O)c1ccc2c(c1)NC(=O)CO2 (stereo not drawn) | 2.36 µM
O[C@H]1C[C@H](c2ccccc2)N(CC2CCCCC2)C[C@@H]1n1cc(C2CC2)nn1 | 11.5 µM
COc1cc2c(cc1OC)C1=C(C#N)CCC(=NC(=O)c3ccco3)N1CC2 | 7.7 µM
CCN1CCN(Cc2ccc(NC(=O)c3cccc(-c4ccc5nc(NC(=O)C6CC6)sc5n4)c3)cc2C(F)(F)F)CC1 | 11.4 µM
CCOc1ncccc1C(=O)Nc1ccccc1F | > 35 µM (inactive)
CC(=O)c1nn(-c2ccc(Br)cc2)cc1C(=O)c1ccccc1 | 8.45 µM
COc1cc2cnc(-c3ccsc3)cc2cc1OC | 0.826 µM
Cc1nn(Cc2ccc(Cl)cc2Cl)c(Cl)c1C(=O)Nc1ccc(OC(F)F)cc1 | 6.5 µM
O=c1[nH]cnc2nc(-c3ccc(N(CCCl)CCCl)cc3)[nH]c12 | 5.89 µM
CCOC(=O)Cn1c(=NC(=O)c2nc3ccccc3s2)sc2cc(S(N)(=O)=O)ccc21 | 11.4 µM
Cc1cccc(OCC(=O)Nc2ccc(NC(=O)c3ccco3)cc2)c1 | 17.8 µM
CC(=O)Oc1ccc(Cl)cc1/C=C/c1ccc2ccccc2n1 | 24.9 µM
COc1ccc(NC(=O)c2csc(C)c2)cc1OC | > 35 µM (inactive)
CS(=O)(=O)c1ccc2nc(NC(=O)Nc3ccc(Cl)c(Cl)c3)sc2c1 | 4.78 µM
Fc1ccccc1-c1ccc(C2[C@@H]3CN(Cc4ccccc4)C[C@H]2N3)cc1 (stereo partly drawn) | 7.05 µM
COc1ccc(C(=O)Nc2ccc3c(c2)C(=O)c2ccccc2C3=O)cc1OC | 24.1 µM
CCOC(=O)c1c(NC(=O)Cn2nc(C(F)(F)F)cc2C)sc(C)c1C | 9.34 µM
Fc1ccc(-c2ccc(C3[C@@H]4CN(Cc5cccc(F)c5)C[C@H]3N4)cc2)cc1 (stereo partly drawn) | 5.48 µM
COc1ccc(-c2ccc(-c3noc(-c4ccco4)n3)c(OC)n2)cc1 | 7.71 µM
CCCCCCn1c(-c2cccs2)n[nH]c1=S | > 35 µM (inactive)
COc1cc2sc3ccc(C#Cc4ccc(N)cc4)cc3c(=O)c2cc1OC | 33.4 µM
COc1ccc(/C=N/N(C(C)=O)c2nc(-c3ccc(C)cc3)cs2)cc1 | 0.895 µM
CCOC(=O)c1ccccc1NC(=O)c1n[nH]c(=O)c2ccccc12 | 5.47 µM
Fc1cccc(CN2C[C@@H]3N[C@H](C2)C3c2ccc(/C=C/c3ccccc3)cc2)c1 (stereo partly drawn) | 11.4 µM
C=CCn1cc(Cl)cc(C(=O)Nc2ccccc2)c1=O | 19.7 µM

SMILES | AC40
CCOC(=O)C1(C)CCCCN1C(=O)c1cccc(Cl)c1 (stereo not drawn) | > 35 µM (inactive)
O=C(O)c1ccc(-n2nnnc2SCc2ccccc2F)cc1 | 0.0781 µM
COc1cc(CN2[C@@H]3CNC[C@H]2C3c2ccc(/C=C/c3ccccc3)cc2)cc(OC)c1 (stereo partly drawn) | 10.3 µM
O=C(Nc1ccc(SC(F)F)cc1)c1cccc2nc3ccccc3nc12 | 9.11 µM
CCCCNc1cc(Cl)nc(N)n1 | 7.24 µM
CCCCCCN1C[C@H](n2cc(C3CC3)nn2)[C@@H](O)C[C@@H]1c1ccc(C)cc1 | 7.33 µM
CC(=O)Nc1sc(N/N=C\c2cccc(Cl)c2)nc1-c1cccs1 | 6.6 µM
O=C(NCC1OCCc2ccccc21)c1ccc(NC(=O)c2cccc(Br)c2)cc1 (stereo not drawn) | 14 µM
CCn1nc(C)c(NC(=O)c2cnn3c(C(F)F)cc(-c4ccccc4)nc23)c1C | 3.84 µM
Clc1ccc(/C=N/NC2=Nc3cccc4cccc2c34)cc1 | 2.13 µM
O=C(NCC1OCCc2ccccc21)c1ccc(NC(=O)c2ccc(Cl)cc2Cl)cc1 (stereo not drawn) | 20.4 µM
Cc1ccccc1Cn1ccc(NC(=O)c2cc3nc(-c4ccco4)cc(C(F)(F)F)n3n2)n1 | 4.72 µM
O=C(Nc1nc(-c2ccc(-c3ccccc3)cc2)cs1)C1=COCCO1 | 6.8 µM
COC(=O)C1=C(C)N(Cc2cccc(C(F)(F)F)c2)C(=NCc2ccc(OC)cc2)NC1c1cccc(Cl)c1 (stereo not drawn) | 9.96 µM
COc1ccc(C(=O)Nc2ccccc2C(=O)Nc2ccncc2)cc1 | 0.413 µM
Cc1ccc(-c2cc(C(=O)NCc3cnn(C)c3)c3cc(Br)ccc3n2)cc1 | 3.7 µM
O=C(Cn1ncc(Cl)c(Cl)c1=O)Nc1ccc2c(c1)OCO2 | 12 µM
COc1ccc(S(=O)(=O)N2CCc3ccccc3C2)cc1OC | 28.9 µM
CC(=NC(C)c1ccccc1)c1c(O)[nH]c(=O)[nH]c1=O (stereo not drawn) | 15 µM
Cc1nc2c(=O)n(C)c(=O)n(C)c2nc1Cl | 25.8 µM
c1ccc(-c2nnc3ccc(N4CCC5(CC4)OCCO5)nn23)cc1 | > 35 µM (inactive)
CC(=O)Nc1c(C(=O)C2CC2)oc2ccccc12 | 6.8 µM
CCOC(=O)c1cc2sccc2n1CC(=O)N1c2ccccc2CC1C (stereo not drawn) | 3.59 µM
COC(=O)c1ccc(C(=O)Nc2cc(Cl)ccc2Cl)cc1NC(=O)c1ccccc1C | 2.43 µM
N#Cc1c(N)n(C2CCCCC2)c2nc3ccccc3nc12 | 18.9 µM
NS(=O)(=O)c1ccc(NC(=S)N2CCN(c3ccc(Cl)c(Cl)c3)CC2)cc1 | 9.46 µM

SMILES | AC40
c1ccc(-c2nnc3n2-c2ccccc2SC3)cc1 | > 35 µM (inactive)
CN(Cc1c(C(=O)N/N=C/c2ccccc2O)nnn1-c1nonc1N)C1CCCCC1 | 9.53 µM
CCC(=O)Nc1ccc(Cl)c(NC(=S)NC(=O)COc2ccc(Cl)cc2)c1 | 7.71 µM
FC(F)(F)c1cc(CCN2CCNC[C@H]2Cc2cccc3ccccc23)cc(C(F)(F)F)c1 | 7.24 µM
C=CCOc1ccc(-c2nc3c(c(=O)[nH]c(=O)n3CCCC)n2C)cc1Br | 11.1 µM
NC[C@H](Cc1ccccc1)NCCc1cc(C(F)(F)F)cc(C(F)(F)F)c1 | 14.9 µM
CC1(C(=O)NS(=O)(=O)c2ccc(C#N)cc2)CCN1C(=O)C1(c2ccccc2)CCCC1 (stereo not drawn) | > 35 µM (inactive)
CNc1nc(-c2ccccc2)[n+](-c2ccc(C)cc2)s1 | 2.16 µM
CCOc1cccc(-c2csc(C3COc4ccccc4O3)n2)c1 (stereo not drawn) | 3.7 µM
CCOC(=O)c1c(-c2ccc(-c3ccccc3)cc2)csc1NC(=O)CNCCN(C)C | 8.58 µM
Cc1nc(N)c(C#N)c(-c2cccnc2)c1C | 14.2 µM
COC(=O)c1cnn(-c2nc(-c3ccccc3)cs2)c1N | > 35 µM (inactive)
OC(c1ccccc1)(c1nc(-c2cccc(C(F)(F)F)c2)cs1)C(F)(F)F (stereo not drawn) | 10.3 µM
CCOC(=O)c1csc(-c2ccc(OC)c(OC)c2)n1 | 2.17 µM
C=CCNc1nc(NCc2ccco2)nc(OCC)n1 | > 35 µM (inactive)
Cc1cc(C)c2nc(N(CCCN(C)C)C(=O)c3ccc4c(c3)CCCC4)sc2c1 | 6.21 µM
CCS(=O)(=O)Nc1ccc(-c2cc(-c3ccccc3)c3cc(C)ccc3n2)cc1 | 6.45 µM
COc1ccc(C2=Nn3c(nnc3-c3ccncc3)SC2)cc1OC | 13.3 µM
CC(C)Nc1nc(NC(C)(C)C)nc(Oc2ccc(=O)n(C)n2)n1 | 29.2 µM
Cc1cc(Cl)ccc1Oc1nc(-c2ccccc2)ncc1S(C)(=O)=O | 4.28 µM
Fc1cccc(-c2ccc(C3[C@@H]4CN(Cc5ccccc5F)C[C@H]3N4)cc2)c1 (stereo partly drawn) | 5.28 µM
Fc1cccc(CN2C[C@@H]3N[C@H](C2)[C@@H]3c2ccc(-c3cccc(F)c3)cc2)c1 | 3.93 µM
O=C(Nc1ccc(C(F)(F)F)cc1)N1C[C@@H]2N[C@H](C1)C2c1ccc(/C=C/c2ccccc2)cc1 (stereo partly drawn) | 8.24 µM and 1.64 µM
CC(C)(C(=O)N1CCC1(C)C(=O)NS(=O)(=O)c1ccc(Br)cc1)c1ccccc1 (stereo not drawn) | 12.7 µM
CCOC(=O)c1cnc2c(Cl)c(Cl)ccc2c1NCCN1CCOCC1 | > 35 µM (inactive)
O=c1c2ccc(Cl)cc2[nH]c(=S)n1CCC1=CCCCC1 | 3.37 µM
